Measurements: US9012651B2, “TRPV3 modulators” (AbbVie Inc., priority 2011, dated 2015)

Each compound was assayed against human TRPV3 receptors (Homo sapiens (Human), UniProt Q8NET8) (assay: Calcium flux assay (FLIPR TETRA), inhibition of the 2-APB response). Details: recombinant HEK293 cells stably expressing TRPV3, Calcium-4 dye, 2-APB at its EC80.
Type: cell-based
Method in brief: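 Responses are given relative to the maximal 2-APB signal in the absence of compound, using peak fluorescence over baseline. Measured by FLIPR Tetra calcium flux in stable human and mouse TRPV3 HEK293 cells after 90-120 min dark dye incubation.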

Chain of human TRPV3 receptors (Q8NET8 whole entry): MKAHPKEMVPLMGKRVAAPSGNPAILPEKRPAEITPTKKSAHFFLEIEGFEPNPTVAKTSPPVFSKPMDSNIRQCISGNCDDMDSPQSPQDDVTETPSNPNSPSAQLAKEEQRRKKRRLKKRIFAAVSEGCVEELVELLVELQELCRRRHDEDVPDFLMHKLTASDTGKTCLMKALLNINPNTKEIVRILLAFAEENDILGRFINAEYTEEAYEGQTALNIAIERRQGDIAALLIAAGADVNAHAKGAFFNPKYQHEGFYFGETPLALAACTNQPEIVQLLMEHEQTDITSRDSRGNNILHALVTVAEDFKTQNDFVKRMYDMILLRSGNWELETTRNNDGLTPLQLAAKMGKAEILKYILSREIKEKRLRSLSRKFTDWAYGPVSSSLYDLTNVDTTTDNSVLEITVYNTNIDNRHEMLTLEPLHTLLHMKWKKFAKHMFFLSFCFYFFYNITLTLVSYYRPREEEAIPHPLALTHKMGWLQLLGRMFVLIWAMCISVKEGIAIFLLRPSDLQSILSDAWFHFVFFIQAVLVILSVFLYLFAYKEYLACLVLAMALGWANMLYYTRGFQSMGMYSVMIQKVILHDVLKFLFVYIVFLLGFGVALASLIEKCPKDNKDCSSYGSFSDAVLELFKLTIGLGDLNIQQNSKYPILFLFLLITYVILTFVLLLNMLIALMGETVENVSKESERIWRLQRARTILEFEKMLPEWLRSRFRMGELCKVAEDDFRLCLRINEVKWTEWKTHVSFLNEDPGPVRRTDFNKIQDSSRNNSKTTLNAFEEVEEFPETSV

Row | Structure (SMILES) | IC50
1 | CC(C)[C@H](CO)NCc1nc(-c2cc3c(OCc4ccccc4)cccc3n2C(=O)OC(C)(C)C)ccc1F [Example 259, tert-butyl 4-(benzyloxy)-2-[5-fluoro-6-({[(2R)-1-hydroxy-3-methylbutan-2-yl]amino}methyl)pyridin-2-yl]-1H-indole-1-carboxylate] | 520 nM
2 | CC(=O)c1cccc(-c2ccc(F)c(CN[C@@H](CO)C(C)C)n2)c1F [Example 37, 1-{2-fluoro-3-[5-fluoro-6-({[(2R)-1-hydroxy-3-methylbutan-2-yl]amino}methyl)pyridin-2-yl]phenyl}ethanone] | 1190 nM
3 | CC(c1ccc(F)cc1)c1ccc(F)c(CN[C@@H](CO)C(C)C)n1 (stereo partly drawn) [Example 128, (2R)-2-[({3-fluoro-6-[1-(4-fluorophenyl)ethyl]pyridin-2-yl}methyl)amino]-3-methylbutan-1-ol] | 480 nM
4 | CC(C)Oc1ccc(F)c(-c2ccc(F)c(CN[C@@H](CO)C(C)C)n2)c1 [Example 23, (2R)-2-[({3-fluoro-6-[2-fluoro-5-(propan-2-yloxy)phenyl]pyridin-2-yl}methyl)amino]-3-methylbutan-1-ol] | 700 nM
5 | CC(C)[C@H](CO)NCc1nc(C2CCC(C(F)(F)F)CC2)ccc1F (stereo partly drawn) [Example 216, (2R)-2-[({3-fluoro-6-[4-(trifluoromethyl)cyclohexyl]pyridin-2-yl}methyl)amino]-3-methylbutan-1-ol] | 310 nM
6 | CC1CCN(C(=O)c2ccc(-c3ccc(F)c(CN[C@@H](CO)C(C)C)n3)cc2)CC1 [Example 275, {4-[5-fluoro-6-({[(2R)-1-hydroxy-3-methylbutan-2-yl]amino}methyl)pyridin-2-yl]phenyl}(4-methylpiperidin-1-yl)methanone] | 1330 nM
7 | CC(C)[C@H](CO)NCc1nc(-c2ccc(F)cc2)ccc1F [Example 27, (2R)-2-({[3-fluoro-6-(4-fluorophenyl)pyridin-2-yl]methyl}amino)-3-methylbutan-1-ol] | 320 nM
8 | CC(C)[C@H](CO)NCc1nc(-c2ccc(Cl)nc2)ccc1F [Example 38, (2R)-2-{[(6′-chloro-5-fluoro-2,3′-bipyridin-6-yl)methyl]amino}-3-methylbutan-1-ol] | 2850 nM
9 | CC(C)[C@H](CO)NCc1nc(-c2cc(C(F)(F)F)nn2C)ccc1F [Example 291, (2R)-2-[({3-fluoro-6-[1-methyl-3-(trifluoromethyl)-1H-pyrazol-5-yl]pyridin-2-yl}methyl)amino]-3-methylbutan-1-ol] | 790 nM
10 | OC[C@H](NCc1ccnc(-c2ccc(C(F)(F)F)cn2)n1)C1CC1 [Example 196, (2R)-2-cyclopropyl-2-[({2-[5-(trifluoromethyl)pyridin-2-yl]pyrimidin-4-yl}methyl)amino]ethanol] | > 20000 nM
11 | OC[C@H](NCc1nc(-c2ccc(OCC(F)(F)F)nc2)ccc1F)C1CC1 [Example 76, (2R)-2-cyclopropyl-2-({[5-fluoro-6′-(2,2,2-trifluoroethoxy)-2,3′-bipyridin-6-yl]methyl}amino)ethanol] | 1600 nM
12 | CC(C)[C@H](CO)NCc1nc(-c2cnc(OCC(F)(F)F)nc2)ccc1F [Example 114, (2R)-2-[({3-fluoro-6-[2-(2,2,2-trifluoroethoxy)pyrimidin-5-yl]pyridin-2-yl}methyl)amino]-3-methylbutan-1-ol] | 2330 nM
13 | CC(O)C(C)NCc1nc(-c2ccc(C(F)(F)F)nc2)ccc1F (stereo not drawn) [Example 90, 3-({[5-fluoro-6′-(trifluoromethyl)-2,3′-bipyridin-6-yl]methyl}amino)butan-2-ol] | 2590 nM
14 | COCC(CO)NCc1ccnc(-c2ccc(C(F)(F)F)cc2)n1 (stereo not drawn) [Example 144, 3-methoxy-2-[({2-[4-(trifluoromethyl)phenyl]pyrimidin-4-yl}methyl)amino]propan-1-ol] | 15600 nM
15 | CC(C)[C@H](CO)NCc1nc(C2CC3CCC2C3)ccc1F (stereo partly drawn) [Example 199, (2R)-2-({[6-(bicyclo[2.2.1]hept-2-yl)-3-fluoropyridin-2-yl]methyl}amino)-3-methylbutan-1-ol] | 1590 nM
16 | CCN(CC)C(=O)c1cccc(-c2ccc(F)c(CN[C@@H](CO)C(C)C)n2)c1 [Example 41, N,N-diethyl-3-[5-fluoro-6-({[(2R)-1-hydroxy-3-methylbutan-2-yl]amino}methyl)pyridin-2-yl]benzamide] | 2970 nM
17 | OCC1(CNCc2ccnc(-c3ccc(C(F)(F)F)cc3)n2)CCCC1 [Example 158, (1-{[({2-[4-(trifluoromethyl)phenyl]pyrimidin-4-yl}methyl)amino]methyl}cyclopentyl)methanol] | > 20000 nM
18 | CC(C)[C@H](CO)NCc1nc(C#Cc2ccc(C(C)(C)C)cc2)ccc1F [Example 241, (2R)-2-[({6-[(4-tert-butylphenyl)ethynyl]-3-fluoropyridin-2-yl}methyl)amino]-3-methylbutan-1-ol] | 1860 nM
19 | OC[C@@H]1CCCC[C@@H]1NCc1ccnc(-c2ccc(C(F)(F)F)cc2)n1 [Example 168, {(1R,2S)-2-[({2-[4-(trifluoromethyl)phenyl]pyrimidin-4-yl}methyl)amino]cyclohexyl}methanol] | > 20000 nM
20 | C[C@@H](O)[C@H](NCc1nc(-c2ccc(C(F)(F)F)nc2)ccc1F)C(=O)Nc1ccc2ccccc2c1 [Example 130, N^2-{[5-fluoro-6′-(trifluoromethyl)-2,3′-bipyridin-6-yl]methyl}-N-naphthalen-2-yl-L-threoninamide] | 2550 nM

Row | Structure (SMILES) | IC50
21 | CC(C)[C@H](CO)NCc1cccc(-c2ccccc2)n1 [Example 225, (2R)-3-methyl-2-{[(6-phenylpyridin-2-yl)methyl]amino}butan-1-ol] | 2920 nM
22 | CC(C)[C@H](CO)NCc1nc(N2Cc3ccc(C(F)(F)F)cc3C2)ccc1F [Example 96, (2R)-2-[({3-fluoro-6-[5-(trifluoromethyl)-1,3-dihydro-2H-isoindol-2-yl]pyridin-2-yl}methyl)amino]-3-methylbutan-1-ol] | 330 nM
23 | CC(C)(CO)CNCc1cccc(-c2ccc(C(F)(F)F)cc2)n1 [Example 8, 2,2-dimethyl-3-[({6-[4-(trifluoromethyl)phenyl]pyridin-2-yl}methyl)amino]propan-1-ol] | 2600 nM
24 | CC(C)[C@H](CO)NCc1nc(-c2ccc(F)c(F)c2)ccc1F [Example 228, (2R)-2-({[6-(3,4-difluorophenyl)-3-fluoropyridin-2-yl]methyl}amino)-3-methylbutan-1-ol] | 140 nM
25 | OCC1(CNCc2ccnc(-c3ccc(C(F)(F)F)cc3)n2)CCC1 [Example 157, (1-{[({2-[4-(trifluoromethyl)phenyl]pyrimidin-4-yl}methyl)amino]methyl}cyclobutyl)methanol] | > 20000 nM
26 | CC(C)[C@H](CO)NCc1nc(-c2cncc(C(F)(F)F)c2)ccc1F [Example 292, (2R)-2-({[5-fluoro-5′-(trifluoromethyl)-2,3′-bipyridin-6-yl]methyl}amino)-3-methylbutan-1-ol] | 280 nM
27 | CC(C)[C@H](CO)NCc1nc(-c2cccc(C(=O)N(C(C)C)C(C)C)c2)ccc1F [Example 56, 3-[5-fluoro-6-({[(2R)-1-hydroxy-3-methylbutan-2-yl]amino}methyl)pyridin-2-yl]-N,N-diisopropylbenzamide] | 1780 nM
28 | CC(C)[C@@H](NCc1nc(-c2ccc(C(F)(F)F)nc2)ccc1F)C(C)(C)O [Example 106, (3R)-3-({[5-fluoro-6′-(trifluoromethyl)-2,3′-bipyridin-6-yl]methyl}amino)-2,4-dimethylpentan-2-ol] | 1260 nM
29 | CC(C)[C@H](CO)NCc1nc(C2CCCC3(C2)OCCO3)ccc1F (stereo partly drawn) [Example 215, (2R)-2-({[6-(1,4-dioxaspiro[4.5]dec-7-yl)-3-fluoropyridin-2-yl]methyl}amino)-3-methylbutan-1-ol] | 5670 nM
30 | CC(C)[C@H](CO)NCc1cccc(C#Cc2ccc(S(F)(F)(F)(F)F)cc2)n1 [Example 263, (2R)-3-methyl-2-{[(6-{[4-(pentafluoro-λ^6-sulfanyl)phenyl]ethynyl}pyridin-2-yl)methyl]amino}butan-1-ol] | 230 nM
31 | CC(C)[C@H](CO)NCc1nc(-c2cccc(N3CCOCC3)c2)ccc1F [Example 44, (2R)-2-[({3-fluoro-6-[3-(morpholin-4-yl)phenyl]pyridin-2-yl}methyl)amino]-3-methylbutan-1-ol] | 830 nM
32 | CC(C)(O)[C@H](CO)NCc1ccnc(-c2ccc(C(F)(F)F)nc2)n1 [Example 189, (2S)-3-methyl-2-[({2-[6-(trifluoromethyl)pyridin-3-yl]pyrimidin-4-yl}methyl)amino]butane-1,3-diol] | > 20000 nM
33 | CC(C)[C@H](CO)NCc1nc(C#CC2CCCCC2)ccc1F [Example 240, (2R)-2-({[6-(cyclohexylethynyl)-3-fluoropyridin-2-yl]methyl}amino)-3-methylbutan-1-ol] | 510 nM
34 | OCC[C@@H](NCc1ccnc(-c2ccc(C(F)(F)F)cc2)n1)c1ccccc1 [Example 162, (3R)-3-phenyl-3-[({2-[4-(trifluoromethyl)phenyl]pyrimidin-4-yl}methyl)amino]propan-1-ol] | > 20000 nM
35 | CC(C)[C@H](CO)NCc1nc(N2Cc3ccc(F)cc3C2)ccc1F [Example 93, (2R)-2-({[3-fluoro-6-(5-fluoro-1,3-dihydro-2H-isoindol-2-yl)pyridin-2-yl]methyl}amino)-3-methylbutan-1-ol] | 270 nM
36 | OCC1(NCc2ccnc(-c3ccc(C(F)(F)F)nc3)n2)CCCCC1 [Example 185, {1-[({2-[6-(trifluoromethyl)pyridin-3-yl]pyrimidin-4-yl}methyl)amino]cyclohexyl}methanol] | > 20000 nM
37 | CC[C@H](CO)NCc1ccnc(-c2ccc(C(F)(F)F)cn2)n1 [Example 194, (2R)-2-[({2-[5-(trifluoromethyl)pyridin-2-yl]pyrimidin-4-yl}methyl)amino]butan-1-ol] | > 20000 nM
38 | OCC1(CNCc2ccnc(-c3ccc(C(F)(F)F)cc3)n2)COC1 [Example 160] | > 20000 nM
39 | CC(C)[C@H](CO)NCc1nc(C2CCCN(C(=O)OC(C)(C)C)C2)ccc1F (stereo partly drawn) [Example 219, tert-butyl 3-[5-fluoro-6-({[(2R)-1-hydroxy-3-methylbutan-2-yl]amino}methyl)pyridin-2-yl]piperidine-1-carboxylate] | 660 nM
